Each structure is given as a SMILES string.

One assay has as its target T1, human FAAH (Homo sapiens, UniProt O00519).
T1 construct: host or cells: COS-7 cells, transient transfection; 13,000 g membrane fraction solubilised in 1% Triton X-100
T1 sequence (O00519 1-579): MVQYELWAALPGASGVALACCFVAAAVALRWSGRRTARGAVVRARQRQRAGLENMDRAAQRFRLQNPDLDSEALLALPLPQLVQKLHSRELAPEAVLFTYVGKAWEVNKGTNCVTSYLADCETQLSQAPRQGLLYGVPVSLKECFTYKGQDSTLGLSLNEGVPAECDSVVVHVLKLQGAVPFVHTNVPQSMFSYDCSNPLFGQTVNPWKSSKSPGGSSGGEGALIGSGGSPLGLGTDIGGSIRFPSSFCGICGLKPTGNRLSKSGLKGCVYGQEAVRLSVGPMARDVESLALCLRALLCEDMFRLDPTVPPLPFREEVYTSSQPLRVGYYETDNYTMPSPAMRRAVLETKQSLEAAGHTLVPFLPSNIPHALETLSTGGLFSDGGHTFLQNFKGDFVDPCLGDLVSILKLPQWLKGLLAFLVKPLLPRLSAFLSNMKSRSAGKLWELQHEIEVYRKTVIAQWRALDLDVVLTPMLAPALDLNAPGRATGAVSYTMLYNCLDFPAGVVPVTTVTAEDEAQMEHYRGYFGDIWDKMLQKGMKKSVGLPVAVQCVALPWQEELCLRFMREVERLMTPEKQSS
As to the kind of experiment: Human FAAH biochemical inhibition assay (AMC arachidonoyl amide fluorescence). Conditions: Table 1, human FAAH (no asterisk); read-out: Activity (Ki). In a few lines:
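Solubilized membrane fraction from COS-7 cells transfected with human FAAH, used at a final 0.05 mg/ml in 50 mM Hepes pH 7.5, 1 mM EDTA, 0.2% Triton X-100. Inhibitor pre-incubated 30 min at room temperature; 20 uM final AMC arachidonoyl amide added, reaction run 4 h at room temperature, fluorescence read.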
What is called Ki is the dissociation constant of the complex between target and ligand, obtained from inhibition or displacement. In the case of `OB(O)c1ccc2c(c1)OCO2` [Compound I-88], the Ki was > 1000 nM. In the case of `CC(C)(C)OC(=O)n1c(B(O)O)cc2cc(OCc3ccccc3)ccc21` [Compound I-114], the Ki is > 1000 nM. Regarding `O=S(=O)(NCC1CCCCC1)c1ccc(B(O)O)cc1` [Compound I-119], the Ki fell in the range of 10 to 1000 nM. Still for that read-out and setting: to `OB(O)c1ccc2[nH]ccc2c1` [Compound I-128] belongs > 1000 nM; to `OB(O)c1cc(F)cc(Br)c1` [Compound I-26], 10 to 100 nM; to `COc1ccccc1B(O)O` [Compound I-78], > 1000 nM. On to `Cc1cc(B(O)O)cc(C)c1OCc1cccc(Cl)c1` [Compound I-148], for which the inhibition constant Ki is < 10 nM.

For `Cc1ccc(B(O)O)cc1C` [Compound I-80], the Ki lay in the range of 10 to 1000 nM. The same measure, in the same setting: then `OB(O)c1ccc(OC(F)(F)F)cc1` [Compound I-204], with 10 to 100 nM; and `O=C(Nc1ccccc1)c1cccc(B(O)O)c1` [Compound I-165], with > 1000 nM.

As for `OB(O)c1ccc2c3c(cccc13)CC2` [Compound I-181], the Ki fell in the range of 10 to 1000 nM. Still for that read-out and setting: to `OB(O)c1cccc(OC(F)(F)F)c1` [Compound I-45] belongs 10 to 1000 nM. For `N#Cc1ccc(B(O)O)cc1` [Compound I-46], the inhibition constant Ki fell in the range of 10 to 1000 nM.

Consider `Cc1ccc(B(O)O)cc1` [Compound I-96], for which the Ki is > 1000 nM. `CC(C)(C)OC(=O)n1c(B(O)O)cc2c(OCc3ccccc3)cccc21` [Compound I-115]: the Ki is > 1000 nM. For the compound `OB(O)c1c(F)ccc(OCc2ccccc2)c1F` [Compound I-143], the Ki is > 1000 nM.

For the compound `OB(O)c1cccc(-c2ccccc2)c1` [Compound I-186], the inhibitory constant (Ki) was in the range of 10 to 1000 nM. With `COc1cccc(COc2c(Br)cccc2B(O)O)c1` [Compound I-5], the Ki is > 1000 nM. For the compound `Cc1nnc(-c2ccc(B(O)O)cc2)o1` [Compound I-121], the inhibition constant Ki was in the range of 10 to 100 nM.

Still in this assay, the particulars now being: Table 2, human FAAH (no asterisk); read-out: Activity (Ki).
Take `C/C(=N\OCc1ccccc1)c1ccc(B(O)O)cc1` [II-130]: the Ki was < 10 nM. In the case of `COc1cc(Oc2ccc(B(O)O)cc2)cc(OC)c1OC` [II-240], the Ki lay within 10 to 100 nM. The same measure, in the same setting: to `CN(C)CCNC(=O)C(Oc1ccc(B(O)O)cc1)c1ccccc1` (stereo not shown) [II-215] belongs > 1000 nM; to `CN(C)[C@H](COc1ccc(B(O)O)c(F)c1)Cc1ccccc1` [II-98], > 1000 nM; to `OB(O)c1ccc(Oc2cccc(Oc3cccc4ccccc34)c2)cc1` [II-190], 10 to 100 nM.

Turning to `Nc1cccc(Oc2ccc(B(O)O)cc2)c1` [II-287], the Ki was in the range of 10 to 100 nM.

Consider `O=C(c1ccc(B(O)O)cc1)N(Cc1ccccc1)Cc1ccccc1` [II-223], for which the Ki lay within 10 to 1000 nM. With `OB(O)c1ccc(OCc2cnco2)cc1F` [II-135], the Ki lay within 10 to 100 nM.

As for `OB(O)c1ccc(OC2Cc3ccccc3C2)cc1F` [II-138], the Ki was < 10 nM. Consider `CN(C)c1cc(Oc2ccc(Cl)cc2)cc(Oc2ccc(B(O)O)cc2)c1` [II-181], for which the Ki lay in the range of 10 to 1000 nM. Regarding `Cc1cc(B(O)O)ccc1-c1ccccc1` [II-33], the Ki lay in the range of 10 to 100 nM. Still for that read-out and setting: to `OB(O)c1ccc(CCCc2ccccc2)cc1F` [II-46] belongs < 10 nM. For `OB(O)c1ccc(COc2cccc3ccccc23)cc1` [II-119], the Ki is < 10 nM. For `OB(O)c1ccc(-c2cccnc2)cc1F` [II-13], the Ki was 10 to 100 nM. Still for that read-out and setting: to `OB(O)c1ccc(COC2C3CC4CC(C3)CC2C4)cc1` (stereo not shown) [II-93] belongs 10 to 100 nM; to `Cc1cc(Oc2ccc(B(O)O)cc2)ccc1Cl` [II-254], < 10 nM; to `OB(O)c1cc(F)c(Oc2cccc(F)c2)c(F)c1` [II-198], < 10 nM. With `OB(O)c1ccc(CN(c2ccccc2)c2ccccc2)cc1` [II-158], the Ki was > 1000 nM. For `OB(O)c1ccc(Oc2ccc3c(c2)OCO3)cc1` [II-274], the Ki was < 10 nM. On to `OB(O)c1cccc(OCc2ccccc2)c1` [II-316], for which the Ki was in the range of 10 to 100 nM. Still for that read-out and setting: then `COC(=O)C(Oc1ccc(B(O)O)cc1)c1ccccc1` (stereo not shown) [II-224], with 10 to 100 nM.

These data come from patent publication US8329675B2, “Inhibitors of fatty acid amide hydrolase” (Infinity Pharmaceuticals, Inc., priority 2006, dated 2012).
